Measured values reported in ChEMBL document CHEMBL1137440, “Kinesin spindle protein (KSP) inhibitors. Part 6: Design and synthesis of 3,5-diaryl-4,5-dihydropyrazole amides as potent inhibitors of the mitotic kinesin KSP” (Bioorg Med Chem Lett, 2007).
Active and inactive are the calls of the source. No cut-off for these calls is given here.

Assays:
Plasma [1] = assay: Drug level in A2780 cells bearing mouse plasma, po; format: functional
Plasma [2] = assay: Protein binding in mouse plasma; format: functional, cell-free
Plasma [3] = assay: Protein binding in human plasma; format: functional, cell-free
Canis familiaris [4] = species on record: Canis familiaris; assay: Induction of drug-induced QTc prolongation in dog cardiovascular model at less than 10 uM; format: functional, organism-based; details: Canis lupus familiaris; Heart
Canis familiaris [5] = species on record: Canis familiaris; assay: Induction of drug-induced QTc prolongation in dog cardiovascular model at 40 uM; format: functional, organism-based; details: Canis lupus familiaris, Heart
A2780 = assay: Mitotic arrest in A2780 cells bearing mouse at 3 mg/kg after 22 hrs by phospho-Histone immunohistochemistry assay; format: functional, organism-based; parameters: dose 3 mg/kg
Plasma [6] = assay: Drug level in A2780 cell bearing mouse plasma at 3 mg/kg, po; format: functional, organism-based; parameters: dose 3 mg/kg

PPB (Plasma [2]) [%] | PPB (Plasma [3]) [%] | SMILES | Cp (Plasma [1]) [nM] | Activity (Canis familiaris [4]) | Activity (Canis familiaris [5]) | Activity (A2780) | Cp (Plasma [6]) [nM]
92 | 91 | CC(=O)N1CCN(CCC[C@@]2(c3ccccc3)CC(c3cc(F)ccc3F)=NN2C(C)=O)CC1 | 56 | Active |  |  | 
 |  | CC(=O)N1N=C(c2cc(F)ccc2F)C[C@@]1(C[C@H](F)CN)c1ccccc1 |  |  | inactive | Active | 38
